`Cc1cc(N)nc(N2CCOCC2)n1`: the melting point (usually the temperature, or range, at which the solid turns liquid) lay in the range of 102 to 104 °C.

In turn, `Cn1cccc1C(=O)N1CCNCC1` returned a melting point of 58 to 60 °C.

Consider `COCCOc1ccc(C(F)(F)F)cc1N`, for which the melting point was 43 to 47 °C.

For `OC1(Cc2ccccc2)CCCC1`, the melting point is 56 to 58 °C.

`CC(C)Oc1cc(Br)ccc1C(=O)O` returned a melting point of 86 to 88 °C.

With `Fc1ccccc1CCNC1=NCCS1`, the melting point lay within 95 to 97 °C.

On to `O=C(O)C1=COCCC1`, for which the melting point lay in the range of 71 to 73 °C.

For `BrCc1cc(Br)cc2cccnc12`, the melting point was 140 to 142 °C.

Consider `O=C(O)CCCNS(=O)(=O)c1ccc2c(c1)CCCC2`, for which the melting point fell in the range of 130 to 132 °C.

Consider `COc1ccc(OC)c(C(C)NC(=O)CCl)c1` (stereo not given), for which the melting point lay within 103 to 105 °C.

In the case of `O=C(O)c1cc(Cl)nc(N2CCCC2)c1`, the melting point was 215 to 217 °C.

Turning to `Cc1noc(C)c1COc1ccccc1C(=O)O`, the melting point fell in the range of 172 to 174 °C.

`CC(NC(=O)c1ccc(Br)s1)C(=O)O` (stereo not given): the melting point is 135 to 137 °C.

As for `COC(=O)c1cc(Br)ccc1S(=O)(=O)Cl`, the melting point lay in the range of 66 to 70 °C.

In turn, `Cc1cc(Br)cc(C)c1N1CCCC1=O` registered a melting point of 103 to 105 °C.

Compound `Cc1ccc(C(=O)Nc2ccc(O)cc2)cc1` came in with a melting point of 208 to 210 °C.

As to `CC(C)n1ncc2c(C(=O)O)cc(-c3ccccc3)nc21`, the melting point lay in the range of 198 to 200 °C.

`CCN(CC)S(=O)(=O)c1ccc(NC(=O)CCl)cc1` displayed a melting point of 103 to 105 °C.

Compound `CC(C)(C)OC(=O)c1cccc(C(=O)O)c1` gave a melting point of 147 to 149 °C.

Compound `Cc1ccc(NS(C)(=O)=O)c(N)c1` registered a melting point of 116 to 118 °C.

Compound `Cc1noc(-c2ccnc(Cl)c2)n1` returned a melting point of 65 to 67 °C.

`O=C(O)CCCNC(=O)c1ccc2[nH]nnc2c1` yielded a melting point of 230 to 232 °C.

Compound `CC(=O)N1CCC(S(=O)(=O)Cl)CC1` returned a melting point of 95 to 97 °C.

`O=C(O)COc1ccc2ccc(=O)oc2c1`: the melting point lay in the range of 213 to 215 °C.

Compound `COc1ccc2c(O)ccnc2c1` displayed a melting point of 213 to 215 °C.

As for `CC(N)(C(=O)O)c1ccc(Cl)cc1` (stereo not given), the melting point was in the range of 297 to 299 °C.

In turn, `Cc1noc2nc(-c3cccc(Cl)c3)cc(C(=O)O)c12` gave a melting point of 239 to 241 °C.

Regarding `CCNS(=O)(=O)c1cccc(F)c1`, the melting point lay in the range of 49 to 51 °C.

The compound `CC(=O)N1CCN(c2ccccc2C=O)CC1` had a melting point of 86 to 88 °C.

For the compound `Cc1ccc(C(=O)c2ccccc2Cl)cc1`, the melting point was 90 to 92 °C.

The compound `NC(=O)c1cc(N)nc2ccccc12` showed a melting point of 199 to 201 °C.

`CNS(=O)(=O)c1c(C)noc1C` displayed a melting point of 70 to 72 °C.

For the compound `CCN(CC)S(=O)(=O)c1ccc(OC)c(NC(=O)CCl)c1`, the melting point lay within 100 to 102 °C.

For the compound `NC(=O)c1cc(N)ccc1F`, the melting point fell in the range of 137 to 139 °C.

`CN1CCCC(N(C)C(=O)c2ccc(N)cc2)C1` (stereo not given) came in with a melting point of 116 to 118 °C.

The compound `O=C1CC(NC(=O)C(F)(F)F)c2ccsc21` (stereo not given) showed a melting point of 133 to 135 °C.

The compound `CCOc1cc(C=O)ccc1OCc1ccc(C(C)(C)C)cc1` had a melting point of 113 to 115 °C.

For the compound `Nc1c(-c2ccccc2)nc2ccccn12`, the melting point is 152 to 155 °C.

The compound `O=C(O)c1sccc1S(=O)(=O)Nc1ccc(F)cc1` showed a melting point of 180 to 182 °C.

`Nc1nnc(-c2cccc(Br)c2)[nH]1`: the melting point was in the range of 219 to 221 °C.

`c1nc(N2CCCC2)c2nc[nH]c2n1`: the melting point was in the range of 302 to 304 °C.

Consider `O=C(CCl)Nc1ccc2c(c1)OCCCO2`, for which the melting point lay within 108 to 110 °C.

In turn, `Cc1ccc(-c2cnc(CCC(=O)O)o2)cc1C` showed a melting point of 159 to 161 °C.

`CCNS(=O)(=O)c1cc(/C=C/C(=O)O)ccc1OC` returned a melting point of 198 to 200 °C.

In turn, `O=C(O)COCCN1CCN(C(c2ccccc2)c2ccc(Cl)cc2)CC1` (stereo not given) showed a melting point of 224 to 226 °C.

For `O=C(CCCl)Nc1ccc(F)cc1`, the melting point lay within 109 to 111 °C.

As for `NNC(=O)COc1ccc(OCc2ccccc2)cc1`, the melting point lay in the range of 142 to 144 °C.

For `CC(C)(C)c1cc(N)n(C2CCS(=O)(=O)C2)n1` (stereo not given), the melting point lay in the range of 247 to 249 °C.

Take `Cc1cc(CNCc2cc(C)c(O)c(C)c2)cc(C)c1O`: the melting point was 249 to 251 °C.

Compound `CC(C)(C)C(N)c1nc(-c2nnc[nH]2)no1` (stereo not given) showed a melting point of 169 to 171 °C.

In the case of `CCc1ccc(C(C)(C)C(=O)O)cc1`, the melting point was in the range of 52 to 54 °C.

Compound `Cc1cc(Br)cc2c1NC(=O)C2=O` showed a melting point of 298 to 300 °C.

`COc1ccccc1C(=O)NC(C(=O)O)C(C)C` (stereo not given): the melting point lay within 128 to 129 °C.

For the compound `CCn1nc(C(C)C)cc1C(=O)O`, the melting point fell in the range of 115 to 117 °C.

Compound `C/C(=N\O)c1cc(C(=O)O)c[nH]c1=O` registered a melting point of 281 to 283 °C.

Compound `NCc1ccc(N2CCC(O)CC2)c(F)c1` returned a melting point of 104 to 106 °C.

Compound `COc1ccc(Cl)cc1NC(=O)CC(=O)Nc1cc(Cl)ccc1OC` returned a melting point of 98 to 101 °C.

Compound `COc1ccc(Cl)c(S(=O)(=O)Cl)c1` showed a melting point of 41 to 43 °C.

With `Cc1ccc(Cl)cc1C(N)=O`, the melting point is 150 to 152 °C.

In the case of `CCNc1cc2c(nn1)CCNC2`, the melting point lay in the range of 140 to 142 °C.

Turning to `N=C(N)NN=Cc1ccccc1`, the melting point was 179 to 181 °C.

`COC(=O)c1cc(OC)ccn1` gave a melting point of 43 to 45 °C.

In the case of `Nc1ccc(-c2nc3ccccc3s2)cc1N`, the melting point was in the range of 165 to 169 °C.

In the case of `Cc1cc(N)c2cc(N)ccc2n1`, the melting point is 212 to 214 °C.

Regarding `COC(=O)c1oc2ccccc2c1CBr`, the melting point was in the range of 104 to 106 °C.

For the compound `Cn1c(S)nnc1-c1ccc(F)cc1`, the melting point fell in the range of 111 to 115 °C.

Compound `N#Cc1ccc(Oc2ccccc2C(F)(F)F)nc1` had a melting point of 80 to 82 °C.

For `CC(Cl)c1nnc(-c2ccc(Cl)cc2Cl)o1` (stereo not given), the melting point is 55 to 57 °C.

`CC(=O)c1c(C)[nH]c(C(=O)CCl)c1C` showed a melting point of 170 to 180 °C.

`COC(=O)c1ccc(S)cc1` yielded a melting point of 53 to 55 °C.

As to `N=C1NCCO1`, the melting point fell in the range of 69 to 71 °C.

As to `COc1cccc(Cn2c(N)nc3ccccc32)c1`, the melting point fell in the range of 145 to 147 °C.

Compound `CC(=NO)c1ccc(OCc2ccccc2C)cc1` showed a melting point of 153 to 155 °C.

`NNC(=O)c1n[nH]c2c1CCCC2` registered a melting point of 176 to 178 °C.

`Cc1nc(N(C)C)sc1C=O`: the melting point fell in the range of 116 to 118 °C.

The compound `CCOc1ccccc1C=NO` showed a melting point of 64 to 66 °C.

`Nc1ccc(N2CCCCC2)c(S(=O)(=O)Nc2ccccc2Cl)c1` yielded a melting point of 146 to 148 °C.

For `Cc1ccsc1-c1nnc(S)o1`, the melting point is 211 to 213 °C.

Consider `Cc1nc2ccccc2c(=O)n1-c1ccc(F)cc1`, for which the melting point lay within 134 to 136 °C.

In the case of `Cc1ccc(C(NC(=O)CCl)c2cccs2)cc1` (stereo not given), the melting point was 110 to 112 °C.

`CNc1cnc(Cl)cc1C(=O)O` came in with a melting point of 279 to 281 °C.

Consider `O=C(O)/C(=C\c1cccc(Cl)c1)c1cccs1`, for which the melting point was 192 to 194 °C.

With `COc1cc(OC)c2cc(CCCN)[nH]c2c1`, the melting point lay within 113 to 115 °C.

With `O=C(O)c1cn(-c2cccc([N+](=O)[O-])c2)nn1`, the melting point was in the range of 159 to 161 °C.

For `Cc1ccc(N(C)S(=O)(=O)c2cccc(C(=O)O)c2)cc1`, the melting point was 162 to 164 °C.

These data come from a melting point compilation (Tetko et al.).
